Test results taken from ChEMBL document CHEMBL2390904, “Bioavailable affinity label for collagen prolyl 4-hydroxylase” (Bioorg Med Chem, 2013).
Activity calls are given as the source filed them. The rule behind the calls is not given here.

Columns and labels:
[1] = (§1) Toxicity in L4-stage of Caenorhabditis elegans expressing dpy-18 assessed as embyronic lethality after 24 hrs by light microscopic analysis; type: organism-based; details: in vivo, read-out: LD50
Caenorhabditis elegans = experiment: as §1; type: organism-based; details: in vivo, 24 h
[2] = Binding affinity to human P4H expressed in Escherichia coli at 13 mM after 30 mins by SDS-PAGE analysis
[3] = Irreversible inhibition of human P4H expressed in Escherichia coli using dansyl-Gly-phe-pro-Gly-OEt and alpha-ketoglutarate as substrate incubated up to 15 mins followed by substrate addition by Kitz-Wilson plot analysis
[4] = Binding affinity to human P4H expressed in Escherichia coli using dansyl-Gly-phe-pro-Gly-OEt as substrate at 356 mM incubated up to 5 mins followed by substrate addition by competition assay in presence of alpha-ketoglutarate

In the case of `O=C([O-])CCC(=O)C1CO1.[Na+]` (racemic), the LC50 at 24 h [1] is reported as 110 µM, the Activity (Caenorhabditis elegans) is reported as “Dose-dependent effect” and the Activity [2] is reported as “Active”. For the same molecule, the inhibition [3] was “Dose-dependent effect” and the Activity [4] was “Active”.
